Source: article PMC8151276, “An Integrated Approach toward NanoBRET Tracers for Analysis of GPCR Ligand Engagement” (Molecules, 2021)

Legend:
Format in all cases: binding
PTGER4 = target: T1, PTGER4 (Homo sapiens, UniProt P35408); test: NanoBRET screen HiBiT-PTGER4 in HEK293
T1 construct: purchased Promega (in-house HiBiT-GPCR construct library, NanoBRET)
Method: (§1) Each tracer candidate was screened across the entire library of HiBiT-GPCR constructs using NanoBRET as the detection modality. As depicted in Figure 4A, the specificity of interactions was evaluated through decrease in BRET due to competitive displacement of a bound tracer by excess parental compound. Each tracer was analyzed for binding to each HiBiT-GPCR fusion in the absence and in the presence of competing parental compound. Briefly, HEK293 cells were transfected with HiBiT-GPCR constructs diluted into promoterless DNA to reduce expression and maximize translocation to the cell surface. Each tracer candidate was then screened at concentrations of 1 μM and 0.1 μM across cells expressing these fusions. Cells were treated for 1.5 h with tracer either alone or in the presence of 20 μM competing parental compound (i.e., control). BRET was measured upon addition of purified LgBiT and subsequent complementation with HiBiT genetically fused to a GPCR. The specificity of interactions was assessed through a decrease in BRET signal due to competitive displacement of the bound tracer. To further gauge the robustness of these interactions, the fold response over the control (i.e., BRETtracer/BRETcontrol) was calculated. We chose a 1.5-fold response, which translates to ≥7-fold signal over noise as the minimal threshold required to score an interaction as positive. […]. Below we highlight the screening results obtained for our exemplary fluorescent tracers based on Clozapine, Amitriptyline and AZD1283.
(§2) HiBiT-GPCR DNA constructs were diluted in 10 mM Tris pH 8 to a final concentration of 0.01 μg/μL, arrayed in 96-well plates and stored at −20 °C. For transfection, HEK293 cells were suspended in Opti-MEM (without phenol red) supplemented with 2% fetal bovine serum (Seradigm) and 100 units/mL penicillin–streptomycin (Gibco) at a final concentration of 220,000 cells/mL and dispensed into white 96-well plates at 90 μL/well. Subsequent transfections and screens were carried using an Agilent Bravo Automated Liquid Handling Platform. First, the 96-well HiBiT DNA arrays were diluted 25-fold in Opti-MEM (without serum or phenol red) to a final concentration of 0.0004 μg/μL and 20 μL of the diluted DNAs were transferred into new 96-well plates. Next, promoterless carrier DNA (1 μg/μL) was diluted 25-fold (0.04 μg/μL) and then dispensed into the diluted arrays at 20 μL/well. Following brief mixing, Viafect transfection reagent (Promega) diluted 16-fold into Opti-MEM was dispensed into the plates at 40 μL/well. After mixing by pipetting, plates were incubated for 10 min on the pipetting station deck. The DNA-transfection reagent complexes were then added to plates containing cells. To facilitate the screen, 10 μL of DNA-transfection reagent complexes were added in duplicates to the top 4 and bottom 4 rows, resulting in two identical 48-well arrays per plate. Plates with transfected cells were incubated for 18–20 h at 37 °C/5% CO2. A screen of each tracer across the entire library using two different concentrations requires duplicate plates of transfected cells. Depending on the number of tracers being screened, transfections can be scaled up using the same ratios. The next day, for each tracer, four 20× screening solutions in tracer dilution buffer (Promega) were prepared: two duplicates at final concentration of 20 μM and two duplicates at a final concentration of 2 μM. A competing unmodified compound was added to one of each duplicate at a final concentration of 400 μM. The four resulting solutions were diluted 4-fold in Opti-MEM without serum or phenol red to generate 5× solutions (5 µM and 0.5 µM tracer +/− 100 μM competing compound). To screen the library, a BioTek MultiFlo FX liquid dispenser was used to dispense 22.5 µL of tracer solution to the top 4 rows and 22.5 µL tracer + competing compound solution to the 4 bottom rows. Plates were briefly mixed on an orbital shaker and incubated for 1.5 h at room temperature. […]

AGTR2 = target: T2, AGTR2 (Homo sapiens, UniProt P50052); test: NanoBRET screen HiBiT-AGTR2 in HEK293
T2 construct: purchased Promega (in-house HiBiT-GPCR construct library, NanoBRET)
T2 sequence (P50052 1-363): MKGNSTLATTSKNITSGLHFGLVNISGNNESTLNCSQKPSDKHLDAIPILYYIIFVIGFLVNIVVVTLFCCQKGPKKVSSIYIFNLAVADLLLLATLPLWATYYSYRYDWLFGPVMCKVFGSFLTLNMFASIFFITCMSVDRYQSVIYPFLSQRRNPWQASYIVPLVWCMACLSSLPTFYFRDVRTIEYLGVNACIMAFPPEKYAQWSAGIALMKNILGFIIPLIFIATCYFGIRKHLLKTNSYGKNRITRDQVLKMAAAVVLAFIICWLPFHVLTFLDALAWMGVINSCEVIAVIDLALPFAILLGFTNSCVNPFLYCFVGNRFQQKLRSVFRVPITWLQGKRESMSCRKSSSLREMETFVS
Method: as §1, §2

VIPR2 = target: T3, VIPR2 (Homo sapiens, UniProt P41587); test: NanoBRET screen HiBiT-VIPR2 in HEK293
T3 construct: purchased Promega (in-house HiBiT-GPCR construct library, NanoBRET)
T3 sequence (P41587 24-438): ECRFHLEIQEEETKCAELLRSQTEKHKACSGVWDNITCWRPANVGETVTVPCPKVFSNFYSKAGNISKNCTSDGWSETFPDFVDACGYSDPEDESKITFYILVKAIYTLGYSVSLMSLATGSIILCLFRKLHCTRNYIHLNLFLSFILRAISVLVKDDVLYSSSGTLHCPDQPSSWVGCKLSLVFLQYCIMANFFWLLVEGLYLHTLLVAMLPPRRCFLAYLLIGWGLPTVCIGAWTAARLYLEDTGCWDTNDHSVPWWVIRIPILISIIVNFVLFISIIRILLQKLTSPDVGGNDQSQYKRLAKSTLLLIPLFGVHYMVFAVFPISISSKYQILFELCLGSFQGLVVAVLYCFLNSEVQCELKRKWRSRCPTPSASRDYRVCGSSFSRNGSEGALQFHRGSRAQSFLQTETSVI
Method: as §1, §2

GRM3 = target: T4, GRM3 (Homo sapiens, UniProt Q14832); test: NanoBRET screen HiBiT-GRM3 in HEK293; details: GRM3
T4 construct: purchased Promega (in-house HiBiT-GPCR construct library, NanoBRET)
T4 sequence (Q14832 23-879): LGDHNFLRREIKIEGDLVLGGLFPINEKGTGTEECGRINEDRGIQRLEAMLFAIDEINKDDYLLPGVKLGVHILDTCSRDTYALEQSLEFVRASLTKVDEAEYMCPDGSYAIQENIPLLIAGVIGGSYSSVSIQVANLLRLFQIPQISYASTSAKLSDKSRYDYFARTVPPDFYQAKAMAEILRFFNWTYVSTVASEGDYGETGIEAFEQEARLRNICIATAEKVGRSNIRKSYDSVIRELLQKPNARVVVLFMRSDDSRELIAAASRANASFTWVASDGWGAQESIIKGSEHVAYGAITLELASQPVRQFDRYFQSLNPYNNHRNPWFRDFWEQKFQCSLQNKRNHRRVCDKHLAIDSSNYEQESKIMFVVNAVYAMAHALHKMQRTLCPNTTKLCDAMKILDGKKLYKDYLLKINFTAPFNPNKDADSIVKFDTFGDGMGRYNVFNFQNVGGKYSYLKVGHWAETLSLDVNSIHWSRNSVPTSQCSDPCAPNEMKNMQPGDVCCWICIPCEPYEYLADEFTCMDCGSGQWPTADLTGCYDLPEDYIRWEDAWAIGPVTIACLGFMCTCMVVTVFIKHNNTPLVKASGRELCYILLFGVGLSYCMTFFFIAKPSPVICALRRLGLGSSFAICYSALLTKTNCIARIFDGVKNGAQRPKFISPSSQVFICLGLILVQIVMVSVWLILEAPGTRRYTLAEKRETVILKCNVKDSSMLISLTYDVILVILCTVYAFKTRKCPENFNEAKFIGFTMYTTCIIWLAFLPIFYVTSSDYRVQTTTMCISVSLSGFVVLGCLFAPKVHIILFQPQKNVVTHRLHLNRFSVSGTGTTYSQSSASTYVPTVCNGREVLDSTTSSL
Method: as §1, §2

RXFP2 = target: T5, RXFP2 (Homo sapiens, UniProt Q8WXD0); test: NanoBRET screen HiBiT-RXFP2 in HEK293
T5 construct: purchased Promega (in-house HiBiT-GPCR construct library, NanoBRET)
T5 sequence (Q8WXD0 whole entry): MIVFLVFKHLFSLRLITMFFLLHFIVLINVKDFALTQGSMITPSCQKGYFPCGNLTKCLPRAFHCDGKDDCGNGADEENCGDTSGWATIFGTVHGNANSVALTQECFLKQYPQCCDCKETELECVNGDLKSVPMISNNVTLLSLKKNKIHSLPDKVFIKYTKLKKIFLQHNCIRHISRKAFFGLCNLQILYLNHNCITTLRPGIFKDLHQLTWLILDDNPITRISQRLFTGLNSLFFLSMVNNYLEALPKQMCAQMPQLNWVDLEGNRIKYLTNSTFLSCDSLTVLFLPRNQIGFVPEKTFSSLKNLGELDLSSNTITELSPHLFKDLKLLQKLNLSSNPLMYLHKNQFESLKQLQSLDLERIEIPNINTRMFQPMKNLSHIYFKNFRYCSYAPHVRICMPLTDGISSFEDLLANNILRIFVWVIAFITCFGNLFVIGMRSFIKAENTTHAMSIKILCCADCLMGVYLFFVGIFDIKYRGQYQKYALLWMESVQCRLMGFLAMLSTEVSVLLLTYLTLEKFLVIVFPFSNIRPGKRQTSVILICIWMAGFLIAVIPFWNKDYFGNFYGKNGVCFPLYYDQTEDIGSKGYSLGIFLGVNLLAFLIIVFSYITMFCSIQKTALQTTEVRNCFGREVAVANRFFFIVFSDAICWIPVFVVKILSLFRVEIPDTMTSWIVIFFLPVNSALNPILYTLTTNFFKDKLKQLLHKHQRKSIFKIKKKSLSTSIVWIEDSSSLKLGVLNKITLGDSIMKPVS
Method: as §1, §2

[1] = tracer at 1μM, listed as amitriptyline-b-2-NB590

T1 sequence (P35408 whole entry): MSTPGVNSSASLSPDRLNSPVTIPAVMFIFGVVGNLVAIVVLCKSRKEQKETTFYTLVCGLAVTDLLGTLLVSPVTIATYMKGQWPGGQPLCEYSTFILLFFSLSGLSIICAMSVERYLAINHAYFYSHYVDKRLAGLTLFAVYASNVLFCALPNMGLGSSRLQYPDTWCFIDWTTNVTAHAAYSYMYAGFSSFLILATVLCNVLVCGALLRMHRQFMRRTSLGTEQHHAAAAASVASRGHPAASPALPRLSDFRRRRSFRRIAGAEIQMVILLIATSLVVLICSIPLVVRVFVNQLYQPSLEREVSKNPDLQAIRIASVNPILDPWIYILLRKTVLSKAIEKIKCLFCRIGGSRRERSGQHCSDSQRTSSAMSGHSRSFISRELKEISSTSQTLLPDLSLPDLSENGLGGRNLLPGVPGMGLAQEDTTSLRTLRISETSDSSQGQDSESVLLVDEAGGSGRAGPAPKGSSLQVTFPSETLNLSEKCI

SMILES	NanoBRET Fold Response (GRM3; tracer 0.1μM)	NanoBRET Fold Response (GRM3; tracer 1μM)	NanoBRET Fold Response (PTGER4; PTGER4, tracer 0.1μM)	NanoBRET Fold Response (PTGER4; PTGER4, tracer 1μM)	NanoBRET Fold Response (AGTR2; AGTR2, tracer 0.1μM)	NanoBRET Fold Response (AGTR2; AGTR2, tracer 1μM)	NanoBRET Fold Response (VIPR2; VIPR2, tracer 0.1μM)	NanoBRET Fold Response (VIPR2; VIPR2, tracer 1μM)	NanoBRET Fold Response (RXFP2; RXFP2, tracer 0.1μM)	NanoBRET Fold Response (RXFP2; RXFP2, tracer 1μM)	further results
CN1CCN(C2=Nc3cc(Cl)ccc3Nc3ccc(CNC(=O)CCOCCOCCOCCOCCNC(=O)CCc4ccc5n4[B-](F)(F)[N+]4=C(c6ccc[nH]6)C=CC4=C5)cc32)CC1 [Clozapine-b-2-NB590]	–	–	–	–	–	–	–	–	–	–	NanoBRET Fold Response (PTGER4; PTGER4, 0.1μM tracer): 1.03; NanoBRET Fold Response (PTGER4; PTGER4, 1μM tracer): 1.03; NanoBRET Fold Response (AGTR2; AGTR2, 0.1μM tracer): 1.03; NanoBRET Fold Response (AGTR2; AGTR2, 1μM tracer): 0.95; NanoBRET Fold Response (VIPR2; VIPR2, 0.1μM tracer): 1.02; NanoBRET Fold Response (VIPR2; VIPR2, 1μM tracer): 0.96; NanoBRET Fold Response (GRM3; 0.1μM tracer): 0.99; NanoBRET Fold Response (RXFP2; RXFP2, 0.1μM tracer): 1.04
CN(C)CCC=C1c2ccccc2CCc2ccc(C(=O)NCCNC(=O)CCOCCOCCOCCOCCNC(=O)CCc3ccc4n3[B-](F)(F)[N+]3=C(c5ccc[nH]5)C=CC3=C4)cc21 [Amitriptyline-b-2-NB590]	1.00	1.03	–	–	–	–	–	–	–	–	NanoBRET Fold Response (PTGER4; tracer at 0.1μM): 0.99; NanoBRET Fold Response (PTGER4; tracer at 1μM): 1.04; NanoBRET Fold Response (AGTR2; tracer at 0.1μM): 0.84; NanoBRET Fold Response (AGTR2; [1]): 0.87; NanoBRET Fold Response (VIPR2; tracer at 0.1μM, listed as amitriptyline-b-2-NB590): 1.31; NanoBRET Fold Response (VIPR2; [1]): 1.31; NanoBRET Fold Response (RXFP2; tracer at 0.1μM): 1.09; NanoBRET Fold Response (RXFP2; tracer at 1μM): 1.34
CCOC(=O)c1cc(C#N)c(N2CCC(C(=O)NS(=O)(=O)Cc3ccccc3/C=C/C(=O)NCCNC(=O)CCc3ccc4n3[B-](F)(F)[N+]3=C(c5ccc[nH]5)C=CC3=C4)CC2)nc1C [AZD1283-1-NB590]	–	–	–	–	–	–	–	–	–	–	NanoBRET Fold Response (PTGER4; PTGER4, 0.1μM): 1.03; NanoBRET Fold Response (PTGER4; PTGER4, 1μM): 1.02; NanoBRET Fold Response (AGTR2; AGTR2, 0.1μM): 1.13; NanoBRET Fold Response (AGTR2; AGTR2, 1μM): 1.17; NanoBRET Fold Response (VIPR2; VIPR2, 0.1μM): 1.19; NanoBRET Fold Response (VIPR2; VIPR2, 1μM): 1.15; NanoBRET Fold Response (GRM3; 0.1μM): 0.97; NanoBRET Fold Response (GRM3; 1μM): 0.99; NanoBRET Fold Response (RXFP2; RXFP2, 0.1μM): 1.25; NanoBRET Fold Response (RXFP2; RXFP2, 1μM): 1.29
CC(C)N(CC[C@H](c1ccccc1)c1cc(CCNC(=O)CCOCCOCCOCCOCCNC(=O)CCc2ccc3n2[B-](F)(F)[N+]2=C(c4ccc[nH]4)C=CC2=C3)ccc1O)C(C)C [Tolterodine-2-NB590]	0.82	1.09	1.00	0.99	1.10	1.07	0.98	1.04	1.11	1.30	–
CC(C)N(CC[C@H](c1ccccc1)c1cc(CCNC(=O)c2ccc(CNC(=O)CCc3ccc4n3[B-](F)(F)[N+]3=C(c5ccc[nH]5)C=CC3=C4)cc2)ccc1O)C(C)C [Tolterodine-BZ-NB590]	0.99	1.06	1.02	1.04	0.96	0.95	0.98	1.07	0.34	0.83	–
O=C(CCOCCOCCOCCOCCNC(=O)CCc1ccc2n1[B-](F)(F)[N+]1=C(c3ccc[nH]3)C=CC1=C2)NCCCN1CCN(C2=Nc3ccccc3Oc3ccc(Cl)cc32)CC1 [Loxapine-a-2-NB590]	0.99	1.03	0.97	1.07	1.00	1.01	1.15	0.83	0.94	0.64	–
CN(C)CCC=C1c2ccccc2CCc2ccc(C(=O)NCCNC(=O)CCOCCOCCOCCOCCNC(=O)CCc3ccc4n3[B-](F)(F)[N+]3=C(c5ccc[nH]5)C=CC3=C4)cc21 [Amitriptyline-a-2-NB590]	–	–	–	–	–	–	–	–	–	–	NanoBRET Fold Response (AGTR2; tracer at 0.1μM): 1.01; NanoBRET Fold Response (AGTR2; tracer at 1μM): 0.98; NanoBRET Fold Response (VIPR2; tracer at 0.1μM): 0.95; NanoBRET Fold Response (VIPR2; tracer at 1μM): 1.02
CN(CCC=C1c2ccccc2CCc2ccccc21)C(=O)CCOCCOCCOCCOCCNC(=O)CCc1ccc2n1[B-](F)(F)[N+]1=C(c3ccc[nH]3)C=CC1=C2 [Amitriptyline-e-2-NB590]	–	–	–	–	–	–	–	–	–	–	NanoBRET Fold Response (AGTR2; tracer at 1μM): 0.97; NanoBRET Fold Response (VIPR2; tracer at 1μM): 1.06
